Measurements published in ChEMBL document CHEMBL1649565, “Besifloxacin, a novel fluoroquinolone, has broad-spectrum in vitro activity against aerobic and anaerobic bacteria” (Antimicrob Agents Chemother, 2009).
In brackets after ≈: the same amount, converted by molar mass. Activity calls are given as the source filed them. The calls are words filed in the database; no cut-off is given here.

Key:
[1] = test system: Morganella morganii; test: Antibacterial activity against Morganella morganii by CLSI M7-A7 method; type: functional
[2] = test system: Streptococcus sp.; test: Antibacterial activity against Lancefield Streptococcus sp. group F by CLSI M100-S18 method; type: functional
[3] = test system: Haemophilus influenzae; test: Antibacterial activity against non-ciprofloxacin-susceptible Haemophilus influenzae assessed as percent susceptible isolates by CLSI M7-A7 method; type: functional
[4] = test system: Staphylococcus warneri; test: Antibacterial activity against Staphylococcus warneri by CLSI M100-S18 method; type: functional
[5] = test system: Staphylococcus saprophyticus; test: Antibacterial activity against Staphylococcus saprophyticus by CLSI M100-S18 method; type: functional
[6] = test system: Klebsiella pneumoniae; test: Antibacterial activity against Klebsiella pneumoniae by CLSI M7-A7 method; type: functional
[7] = test system: Streptococcus agalactiae; test: Antibacterial activity against Streptococcus agalactiae by CLSI M100-S18 method; type: functional
[8] = test system: Moraxella catarrhalis; test: Antibacterial activity against Moraxella catarrhalis by CLSI M7-A7 method; type: functional
[9] = test system: Streptococcus pneumoniae; test: Antibacterial activity against levofloxacin susceptible Streptococcus pneumoniae assessed as percent susceptible isolates by CLSI M100-S18 method; type: functional
[10] = test system: Pseudomonas aeruginosa; test: Antibacterial activity against ciprofloxacin-susceptible Pseudomonas aeruginosa by CLSI M7-A7 method; type: functional
[11] = test system: Staphylococcus lugdunensis; test: Antibacterial activity against Staphylococcus lugdunensis assessed as percent susceptible isolates by CLSI M100-S18 method; type: functional
[12] = test system: Streptococcus sanguinis; test: Antibacterial activity against Streptococcus sanguinis by CLSI M100-S18 method; type: functional
[13] = test system: Klebsiella aerogenes; test: Antibacterial activity against Enterobacter aerogenes assessed as percent susceptible isolates by CLSI M7-A7 method; type: functional
[14] = test system: Staphylococcus saprophyticus; test: Antibacterial activity against Staphylococcus saprophyticus assessed as percent susceptible isolates by CLSI M100-S18 method; type: functional
[15] = test system: Staphylococcus haemolyticus; test: Antibacterial activity against Staphylococcus haemolyticus by CLSI M100-S18 method; type: functional
[16] = test system: Staphylococcus lugdunensis; test: Antibacterial activity against Staphylococcus lugdunensis by CLSI M100-S18 method; type: functional
[17] = test system: Streptococcus oralis; test: Antibacterial activity against Streptococcus oralis by CLSI M100-S18 method; type: functional
[18] = test system: Streptococcus intermedius; test: Antibacterial activity against Streptococcus intermedius by CLSI M100-S18 method; type: functional
[19] = test system: Staphylococcus aureus; test: Antibacterial activity against non-ciprofloxacin-susceptible and methicillin-susceptible Staphylococcus aureus assessed as percent susceptible isolates by CLSI M100-S18 method; type: functional
[20] = test system: Staphylococcus epidermidis; test: Antibacterial activity against ciprofloxacin-susceptible and methicillin-resistant Staphylococcus epidermidis by CLSI M100-S18 method; type: functional
[21] = test system: Streptococcus pneumoniae; test: Antibacterial activity against non-levofloxacin susceptible Streptococcus pneumoniae assessed as percent susceptible isolates by CLSI M100-S18 method; type: functional
[22] = test system: Stenotrophomonas maltophilia; test: Antibacterial activity against levofloxacin-susceptible Stenotrophomonas maltophilia by CLSI M7-A7 method; type: functional
[23] = test system: Proteus mirabilis; test: Antibacterial activity against Proteus mirabilis by CLSI M7-A7 method; type: functional
[24] = test system: Streptococcus pneumoniae; test: Antibacterial activity against non-levofloxacin susceptible Streptococcus pneumoniae by CLSI M100-S18 method; type: functional
[25] = test system: Staphylococcus hominis; test: Antibacterial activity against Staphylococcus hominis assessed as percent susceptible isolates by CLSI M100-S18 method; type: functional
[26] = test system: Legionella pneumophila; test: Antibacterial activity against Legionella pneumophila by CLSI M7-A7 method; type: functional
[27] = test system: Streptococcus pyogenes; test: Antibacterial activity against Streptococcus pyogenes by CLSI M100-S18 method; type: functional
[28] = test system: Streptococcus pneumoniae; test: Antibacterial activity against levofloxacin-susceptible Streptococcus pneumoniae by CLSI M100-S18 method; type: functional
[29] = test system: Enterococcus faecium; test: Antibacterial activity against vancomycin- resistant Enterococcus faecium by CLSI M100-S18 method; type: functional
[30] = test system: Serratia marcescens; test: Antibacterial activity against levofloxacin susceptible Serratia marcescens assessed as percent susceptible isolates by CLSI M7-A7 method; type: functional
[31] = test system: Citrobacter freundii; test: Antibacterial activity against Citrobacter freundii by CLSI M7-A7 method; type: functional
[32] = test system: Staphylococcus epidermidis
[33] = test system: Staphylococcus aureus; test: Antibacterial activity against ciprofloxacin-susceptible and methicillin-resistant Staphylococcus aureus by CLSI M100-S18 method; type: functional
[34] = Antibacterial activity against Lancefield Streptococcus sp. 'group G' by CLSI M100-S18 method; type: functional
[35] = test system: Acinetobacter calcoaceticus; test: Antibacterial activity against Acinetobacter calcoaceticus by CLSI M7-A7 method; type: functional
[36] = test system: Staphylococcus warneri; test: Antibacterial activity against Staphylococcus warneri assessed as percent susceptible isolates by CLSI M100-S18 method; type: functional
[37] = test system: Haemophilus influenzae; test: Antibacterial activity against ciprofloxacin-susceptible Haemophilus influenzae assessed as percent susceptible isolates by CLSI M7-A7 method; type: functional
[38] = test system: Stenotrophomonas maltophilia; test: Antibacterial activity against non-levofloxacin susceptible Stenotrophomonas maltophilia by CLSI M7-A7 method; type: functional
[39] = test system: Proteus vulgaris; test: Antibacterial activity against Proteus vulgaris by CLSI M7-A7 method; type: functional
[40] = test system: Klebsiella pneumoniae; test: Antibacterial activity against Klebsiella pneumoniae assessed as percent susceptible isolates by CLSI M7-A7 method; type: functional
[41] = test system: Acinetobacter lwoffii; test: Antibacterial activity against Acinetobacter lwoffii by CLSI M7-A7 method; type: functional
[42] = test system: Streptococcus anginosus; test: Antibacterial activity against Streptococcus anginosus by CLSI M100-S18 method; type: functional
[43] = test system: Serratia marcescens; test: Antibacterial activity against Serratia marcescens by CLSI M7-A7 method; type: functional
[44] = test system: Citrobacter koseri; test: Antibacterial activity against Citrobacter koseri by CLSI M7-A7 method; type: functional
[45] = test system: Pseudomonas aeruginosa; test: Antibacterial activity against non-ciprofloxacin-susceptible Pseudomonas aeruginosa by CLSI M7-A7 method; type: functional
[46] = test system: Enterobacter cloacae; test: Antibacterial activity against Enterobacter cloacae by CLSI M7-A7 method; type: functional
[47] = test system: Staphylococcus epidermidis; test: Antibacterial activity against non-ciprofloxacin-susceptible and methicillin-susceptible Staphylococcus epidermidis assessed as percent susceptible isolates by CLSI M100-S18 method; type: functional

Question: What does the source list for `N[C@@H]1CCCCN(c2c(F)cc3c(=O)c(C(=O)O)cn(C4CC4)c3c2Cl)C1` [BESIFLOXACIN]?
Answer: MIC50 [1]: 0.12 µg/mL (≈ 0.305 µM); MIC90 [1]: 4 µg/mL (≈ 10.2 µM); MIC50 [2]: 0.03 µg/mL (≈ 0.0762 µM); MIC90 [2]: 0.06 µg/mL (≈ 0.152 µM); Activity [3]: inactive; MIC50 [4]: 0.06 µg/mL (≈ 0.152 µM); MIC90 [4]: 1 µg/mL (≈ 2.54 µM); MIC50 [5]: 0.06 µg/mL (≈ 0.152 µM); MIC90 [5]: 0.12 µg/mL (≈ 0.305 µM); MIC50 [6]: 0.25 µg/mL (≈ 0.635 µM); MIC90 [6]: 4 µg/mL (≈ 10.2 µM); MIC50 [7]: 0.06 µg/mL (≈ 0.152 µM); MIC90 [7]: 0.06 µg/mL (≈ 0.152 µM); MIC50 [8]: 0.03 µg/mL (≈ 0.0762 µM); MIC90 [8]: 0.03 µg/mL (≈ 0.0762 µM); Activity [9]: inactive; MIC50 [10]: 1 µg/mL (≈ 2.54 µM); MIC90 [10]: 4 µg/mL (≈ 10.2 µM); Activity [11]: inactive; MIC50 [12]: 0.06 µg/mL (≈ 0.152 µM); MIC90 [12]: 0.12 µg/mL (≈ 0.305 µM); Activity [13]: inactive; Activity [14]: inactive; MIC50 [15]: 0.5 µg/mL (≈ 1.27 µM); MIC90 [15]: 1 µg/mL (≈ 2.54 µM); MIC50 [16]: 0.06 µg/mL (≈ 0.152 µM); MIC90 [16]: 0.5 µg/mL (≈ 1.27 µM); MIC50 [17]: 0.06 µg/mL (≈ 0.152 µM); MIC90 [17]: 0.12 µg/mL (≈ 0.305 µM); MIC50 [18]: 0.06 µg/mL (≈ 0.152 µM); MIC90 [18]: 0.12 µg/mL (≈ 0.305 µM); Activity [19]: inactive; MIC50 [20]: 0.03 µg/mL (≈ 0.0762 µM); Activity [21]: inactive; MIC [22]: 1 µg/mL (≈ 2.54 µM); MIC50 [23]: 0.25 µg/mL (≈ 0.635 µM); MIC90 [23]: 16 µg/mL (≈ 40.6 µM); MIC50 [24]: 0.5 µg/mL (≈ 1.27 µM); MIC90 [24]: 0.5 µg/mL (≈ 1.27 µM); Activity [25]: inactive; MIC50 [26]: 0.03 µg/mL (≈ 0.0762 µM); MIC90 [26]: 0.03 µg/mL (≈ 0.0762 µM); MIC [27]: 0.03 µg/mL (≈ 0.0762 µM); MIC50 [27]: 0.03 µg/mL (≈ 0.0762 µM); MIC90 [27]: 0.06 µg/mL (≈ 0.152 µM); MIC50 [28]: 0.03 µg/mL (≈ 0.0762 µM); MIC90 [28]: 0.06 µg/mL (≈ 0.152 µM); MIC50 [29]: 2 µg/mL (≈ 5.08 µM); MIC90 [29]: 8 µg/mL (≈ 20.3 µM); Activity [30]: inactive; MIC50 [31]: 0.25 µg/mL (≈ 0.635 µM); MIC90 [31]: 4 µg/mL (≈ 10.2 µM); MIC90 [32]: inactive; MIC [33]: 0.015 µg/mL (≈ 0.0381 µM); MIC50 [33]: 0.015 µg/mL (≈ 0.0381 µM); MIC90 [33]: 0.12 µg/mL (≈ 0.305 µM); MIC50 [34]: 0.03 µg/mL (≈ 0.0762 µM); MIC90 [34]: 0.06 µg/mL (≈ 0.152 µM); MIC50 [35]: 0.5 µg/mL (≈ 1.27 µM); MIC90 [35]: 16 µg/mL (≈ 40.6 µM); Activity [36]: inactive; Activity [37]: inactive; MIC [38]: 0.25 µg/mL (≈ 0.635 µM); MIC50 [39]: 0.12 µg/mL (≈ 0.305 µM); MIC90 [39]: 0.25 µg/mL (≈ 0.635 µM); Activity [40]: inactive; MIC50 [41]: 0.25 µg/mL (≈ 0.635 µM); MIC90 [41]: 16 µg/mL (≈ 40.6 µM); MIC50 [42]: 0.06 µg/mL (≈ 0.152 µM); MIC90 [42]: 0.12 µg/mL (≈ 0.305 µM); MIC50 [43]: 0.25 µg/mL (≈ 0.635 µM); MIC90 [43]: 1 µg/mL (≈ 2.54 µM); MIC50 [44]: 0.06 µg/mL (≈ 0.152 µM); MIC90 [44]: 0.25 µg/mL (≈ 0.635 µM); MIC50 [45]: 16 µg/mL (≈ 40.6 µM); MIC90 [45]: 64 µg/mL (≈ 163 µM); MIC50 [46]: 0.12 µg/mL (≈ 0.305 µM); MIC90 [46]: 2 µg/mL (≈ 5.08 µM); Activity [47]: inactive
